Patent US11214803B2, “Modulators of YAP1 expression” (Ionis Pharmaceuticals, Inc., priority 2019, dated 2022)
Strand notation (5' to 3'): a small letter for the sugar, then the base; units joined by * are phosphorothioate-linked, units joined directly phosphodiester-linked; [ ] holds rarer units or linkages, { } end groups; capitals alone tell only the bases. k = constrained ethyl (cEt); [5mC] = 5-methylcytosine; d = 2'-deoxy (DNA)

Tested on: Yap1 mRNA
Test: Dose-dependent inhibition of human Yap1 in A-431 cells (Example 8, 10,000 cells per well, RTS4814)
Assay type: cell-based
Conditions: free uptake, approximately 48 hours, RTS4814; for Yap1 mRNA, % UTC: A-431 cells, 10,000 cells per well; for IC50: A-431 cells, linear regression on log/linear plot
Description: Modified oligonucleotides described in the studies above were tested at various doses in A-431 cells. Cultured A-431 cells at a density of 10,000 cells per well were treated using free uptake with modified oligonucleotides diluted to concentrations described in the tables below. After approximately 48 hours, Yap1 mRNA levels were measured as previously described using the Human Yap1 primer-probe set RTS4814. Yap1 mRNA levels were normalized to total RNA content, as measured by RIBOGREEN®. Results are presented in the tables below as percent control of the amount of Yap1 mRNA relative to untreated control cells (% UTC). IC50s were calculated using a linear regression on a log/linear plot of the data in excel.

| Substance | Yap1 mRNA, % UTC (31.3 nM) | Yap1 mRNA, % UTC (125.0 nM) | Yap1 mRNA, % UTC (500.0 nM) | Yap1 mRNA, % UTC (2000.00 nM) | IC50 |
| --- | --- | --- | --- | --- | --- |
| 1074852 (kA*kA*kT*dT*dG*dT*dT*dA*dT*dG*dA*dT*dA*kG*kG*k[5mC]; antisense) [compound 1074852] | 36 % UTC | 11 % UTC | 4 % UTC | 4 % UTC | < 20 nM |
| 1076549 (kG*kT*kG*d[5mC]*dA*dA*dA*dA*dT*dA*d[5mC]*d[5mC]*dT*kT*kT*kG; antisense) [compound 1076549] | 53 % UTC | 24 % UTC | 10 % UTC | 6 % UTC | < 20 nM |
| 1075458 (antisense k[5mC]*k[5mC]*kA*d[5mC]*dA*dA*dT*dA*dT*dA*d[5mC]*dT*d[5mC]*k[5mC]*kA*kA) [compound 1075458] | 74 % UTC | 43 % UTC | 17 % UTC | 6 % UTC | 100 nM |
| 1076330 (antisense kG*kA*kA*dT*dT*dA*dT*dA*d[5mC]*dT*dG*dG*d[5mC]*kT*kA*k[5mC]) [compound 1076330] | 57 % UTC | 31 % UTC | 9 % UTC | 4 % UTC | 40 nM |
| 1074762 (kG*k[5mC]*kT*dA*d[5mC]*d[5mC]*d[5mC]*dA*dA*dT*dA*d[5mC]*dA*kA*k[5mC]*k[5mC]; antisense) [compound 1074762] | 74 % UTC | 32 % UTC | 14 % UTC | 8 % UTC | 100 nM |
| 1075457 (antisense kA*kG*kT*dA*dA*dT*dA*dT*dG*dT*dA*d[5mC]*dA*kT*kG*kG) [compound 1075457] | 52 % UTC | 21 % UTC | 8 % UTC | 6 % UTC | < 20 nM |
| 1076288 (k[5mC]*kT*kT*dA*dT*dT*dT*dA*dG*d[5mC]*dA*dT*dA*kG*kT*kG; antisense) [compound 1076288] | 31 % UTC | 7 % UTC | 3 % UTC | 4 % UTC | < 20 nM |
| 1075876 (antisense kG*kT*kA*dT*dT*dT*dA*dT*dG*dA*dT*dG*dA*kT*kT*k[5mC]) [compound 1075876] | 47 % UTC | 20 % UTC | 7 % UTC | 5 % UTC | < 20 nM |
| 1075137 (kG*kA*kT*dT*dA*dA*dA*dT*dA*d[5mC]*dT*dG*dA*k[5mC]*k[5mC]*kA; antisense) [compound 1075137] | 70 % UTC | 22 % UTC | 8 % UTC | 4 % UTC | 100 nM |
| 1076260 (k[5mC]*kT*kT*dA*dA*dT*dT*dT*dA*dA*d[5mC]*dT*d[5mC]*k[5mC]*kT*kG; antisense) [compound 1076260] | 61 % UTC | 30 % UTC | 12 % UTC | 5 % UTC | 50 nM |
